Results: patent publication EP0351784A2, “Therapeutic use of the isopropyl ester derivative of monosialoganglioside in nervous pathologies with an inflammatory component” (FIDIA S.p.A., priority 1988, dated 1990)

Tests used:
[1] = test system: Sprague-Dawley rats; assay: acetic acid-induced peritonitis test (antiexudative activity); format: in vivo, rat; conditions: for % inhibition: peritoneal exudate
Experimental: The study was conducted on Sprague-Dawley rats, weighing between 200 and 300 gr. An evaluation was made of the capacity of the isopropyl ester of GM₁ ganglioside (hereafter known as AGF₄₄) and GM₁ itself, to inhibit the formation of peritoneal exudate following intraperitoneal injection (10 ml/kg) of a 0.5% acetic acid solution. To study administration by oral, subcutaneous and intraperitoneal routes, AGF₄₄ and GM₁ (solubilized in 10 ml/kg of sterile saline physiological solution) and a comparison compound indomethacin were administered by the individual routes one hour before the injection of acetic acid. To study topical administration, one hour before i.p. injection of acetic acid, AGF₄₄ and GM₁ in the form of 0.1% aqueous gels and the comparison 5% Artrosilene gel (ketoprofen lysine salt) were applied to the right paws with a light massage for 30 seconds to ensure complete absorption of the gel. The control groups received saline physiological solution (10 ml/kg) and placebo gel (0.2 ml/rat), respectively. 30 minutes after exudate inducement the animals were sacrificed, samples were taken of the peritoneal exudate and the percentage of inhibition of the same in relation to control values was calculated.

[2] = test system: male Sprague Dawley rats; assay: carrageenan-induced edema test in the paw (antiedematous activity); format: in vivo, rat; conditions: for % inhibition: paw volume increase at 3rd hour
Experimental: The study was conducted on male Sprague Dawley rats, weighing about 160 ± 10 gr. An evaluation was made of the activity of the isopropyl ester of GM₁ ganglioside (AGF₄₄) and GM₁ in inhibiting the formation of edema following injection of a sterile aqueous solution of 1% carrageenan into the plantar aponeurosis of the right hand paw (0.1 ml/rat). To study administration by oral, subcutaneous and intraparitoneal routes, AGF₄₄ and GM₁ (solubilized in 10 ml/kg of sterile saline physiological solution) were compared to indomethacin as a comparison compound. For study of the oral route, each compound was administered by oral route one hour before injection of carrageenan. For study of the subcutaneous and intraperitoneal routes, each compound was administered 30 minutes before the same. To study topical administration, AGF₄₄ and GM₁ (as 0.1% aqueous gels) were compared to 5% Artrosilene gel (ketoprefene lysine salt). Each compound was applied locally to the right paw, and administration was effected twice, one hour before and immediately after injection of carrageenan, massaging lightly for 30 seconds to ensure complete absorption. The control groups received saline physiological solution (10 ml/kg) and placebo gel (0.2-0.4 ml/rat twice) respectively. Plethysmometric evaluation of the volume of the right paw was effected immediately before sub-plantar injection of carrageenan an 3 hours after the same. The antiedematous effect of the treatment was calculated by evaluating the average increase in paw volume at the 3rd hour (compared to time 0) based on control values.

[3] = intraperitoneal, 1 mg/kg, one hour before acetic acid
[4] = oral, 1 mg/kg, one hour before i.p. 0.5% acetic acid (10 ml/kg)
[5] = oral, 2.5 mg/kg, one hour before acetic acid
[6] = subcutaneous, 1 mg/kg, one hour before acetic acid
[7] = subcutaneous, 2.5 mg/kg, one hour before acetic acid
[8] = intraperitoneal, 1 mg/kg, 30 minutes before carrageenan
[9] = intraperitoneal, 5 mg/kg, 30 minutes before carrageenan
[10] = oral, 1 mg/kg, one hour before 1% carrageenan
[11] = oral, 5 mg/kg, one hour before carrageenan
[12] = subcutaneous, 1 mg/kg, 30 minutes before carrageenan
[13] = subcutaneous, 5 mg/kg, 30 minutes before carrageenan
[14] = intraperitoneal, 2.5 mg/kg, one hour before acetic acid
[15] = topical to right paw, 0.1% gel 0.2 ml/rat, 1.4 mg/kg, one hour before acetic acid
[16] = intraperitoneal, 2 mg/kg, 30 minutes before carrageenan
[17] = oral, 2 mg/kg, one hour before carrageenan
[18] = subcutaneous, 2 mg/kg, 30 minutes before carrageenan

In the case of COc1ccc2c(c1)c(CC(=O)O)c(C)n2C(=O)c1ccc(Cl)cc1 [Indomethacin, indomethacin, reference compound], the “% inhibition” value [1, 3] is reported as 70%, the “% inhibition” value [1, 4] is reported as 74% and the “% inhibition” value [1, 5] is reported as 90%. For the same molecule, the “% inhibition” value [1, 6] was 64%, the “% inhibition” value [1, 7] was 84% and the “% inhibition” value [2, 8] was 23%. For the same molecule, the “% inhibition” value [2, 9] was 67%, the “% inhibition” value [2, 10] was 22% and the “% inhibition” value [2, 11] was 67%. For the same molecule, the “% inhibition” value [2, 12] was 30% and the “% inhibition” value [2, 13] was 60%.

“GM₁ ganglioside [GM1, reference compound]” was tested, and the “% inhibition” value [1, 3] was 47%, the “% inhibition” value [1, 14] was 51% and the “% inhibition” value [1, 4] was 56%. The “% inhibition” value [1, 5] was 63%, the “% inhibition” value [1, 6] was 44% and the “% inhibition” value [1, 7] was 52%. The “% inhibition” value [1, 15] was 30%, the “% inhibition” value [2, 16] was 20% and the “% inhibition” value [2, 9] was 30%. For the same molecule, the “% inhibition” value [2, 17] was 20%, the “% inhibition” value [2, 11] was 32% and the “% inhibition” value [2, 18] was 19%. For the same molecule, the “% inhibition” value [2, 13] was 31% and the “% inhibition” value ([2]; topical, 0.1% gel 0.2 ml/rat/twice, dose in mg/kg not given) was 20%.

For “isopropyl ester of GM₁ ganglioside [GM1 isopropyl ester]”, the Peritoneal exudate inhibition ([1]; after oral administration) was 70-80%, the antiexudative efficacy ([1]; at doses of less than 0.1 mg/kg (in the order of 0.1 mg/kg)) was “efficacious” and the antiexudative activity ([1]; at doses of over 10 mg/kg) was “the activity decreases”. The “antiexudative activity compared with indomethacin” value ([1]; oral, at 1 mg/kg) was “comparable to that of indomethacin”, the “% inhibition” value [1, 3] was 55% and the “% inhibition” value [1, 14] was 60%. The “% inhibition” value ([1]; intraperitoneal, 5 mg/kg, one hour before acetic acid) was 64%, the “% inhibition” value [1, 4] was 70% and the “% inhibition” value [1, 5] was 72%. For the same molecule, the “% inhibition” value ([1]; oral, 5 mg/kg, one hour before acetic acid) was 77%, the “% inhibition” value [1, 6] was 47% and the “% inhibition” value [1, 7] was 61%. The “% inhibition” value ([1]; subcutaneous, 5 mg/kg, one hour before acetic acid) was 70%, the “% inhibition” value [1, 15] was 43% and the antiinflammatory activity ([2]; at doses of over 10 mg/kg) was “it diminishes at doses of over 10 mg/kg”. The “Maximum efficacy (inhibition)” value ([2]; by oral route) was 50-60%, the “% inhibition” value [2, 8] was 18% and the “% inhibition” value [2, 16] was 32%. For the same molecule, the “% inhibition” value [2, 9] was 57%, the “% inhibition” value [2, 10] was 20% and the “% inhibition” value [2, 17] was 32%. For the same molecule, the “% inhibition” value [2, 11] was 60%, the “% inhibition” value [2, 12] was 25% and the “% inhibition” value [2, 18] was 30%. For the same molecule, the “% inhibition” value [2, 13] was 50%, the “% inhibition” value ([2]; topical, 0.1% gel 0.2 ml/rat/twice, 1.25 x 2 mg/kg) was 32% and the “% inhibition” value ([2]; topical, 0.1% gel 0.4 ml/rat/twice, 2.5 x 2 mg/kg) was 43%.
